Assay results taken from patent publication US6316424A, “Sulfated phosphatidylinositols, their preparation and use of the same” (The Board of Trustees of the University of Illinois, priority 2000, dated 2001).
Counter-ions that a name gives are not always drawn.

How the values were obtained:
[1] = system: HIV-1 virus; assay: In vitro anti-HIV activity, XTT/formazan cell viability protection (NCI, method of Gustafson et al.); assay type: cell-based, HIV-1 (human lymphoblastoid cells); conditions: Human immunodeficiency virus 1, 168 h; Table 3; 7 days; PSL values normalized to SPI content
Experimental: A number of formulations of SPI and PSLs were prepared and their in vitro anti-HIV activity determined by the National Cancer Institute at the National Institutes of Health, Bethesda, Md., using the method of Gustafson et al, J. Nat. Can. Inst., 81(16), 1254-1258 (1989). Varying concentrations of each formulation were mixed with cultured human lymphoblastoid cells, then cocultivated with host cells chronically infected with HIV-1 virus at 37° C. After 7 days, the cell culture is incubated with a mixture of tetrazolium salt XTT and phenazine methylsulfate for 4 hours. […] Formazan absorbs visible light at 450 nm. Therefore, the amount of formazan produced is a direct measurement of cell viability and, consequently, an estimate of the anti-HIV activity of each formulation. Formazan production in normal, uninfected cells is labelled as control.
In particular, the following compositions were assayed for anti-HIV activity. The data and effective concentration (ED50), i.e., the minimum concentration that protects 50% of the cells against infection, of each composition are summarized in FIGS. 5-7 and the results summarized in Table 3. Control values were obtained by incubating lymphoblastoid cells with each formulation in the absence of HIV. […]

[2] = Surface tension / critical micelle concentration (Fisher Scientific Surface Tensiometer); assay type: physicochemical
Experimental: The surface activity of SPI also was determined. In this test, dilutions of SPI were prepared and the surface tension of each solution measured using a Fisher Scientific Surface Tensiometer. The critical micelle concentration (CMC) of SPI was estimated as the minimum concentration at which the surface tension remains constant. For SPI, the CMC is about 0.10 mg/mL. […] Accordingly, the addition of sulfate groups to PI alters its aqueous behavior, shifting the tendency of the phospholipid from forming vesicles to forming micelles.

| Compound | EC50 [1] [µg/mL] | behavior on addition of water (in words) [2] | surface activity (in words) ([2]; surface tension measurements, compared with SPI) |
| --- | --- | --- | --- |
| CC(C)Nc1cccnc1N1CCN(C(=O)c2cc3cc(NS(C)(=O)=O)ccc3[nH]2)CC1 [Delaviridine, Delaviridine mesylate, reference compound] | 0.031 |  |  |
| phosphatidylinositol [PI] |  | formation of phosphatidylinositol liposomes | no similar surface activity |
